Measurements published in US20240025907A1, “QUINAZOLINE PAN-KRas INHIBITORS” (Mirati Therapeutics, Inc., priority 2022, published 2024).
Read-outs that look alike come from different tables or passages of the source.

Key:
Type in all cases: cell-based
[1] = system: KRas-mediated Phosphorylation of ERK in AsPC-1 cells; test: Cisbio HTRF pERK assay, AsPC-1 cells; details: for IC50: 3 hrs compound, read-out: Inhibition (HTRF IC50 nM) of KRas-mediated Phosphorylation of ERK, AsPC-1; for inhibition at 0.1 µM: ASPC1, single point at 100 nM
[2] = system: KRas-mediated Phosphorylation of ERK in H727 cells; test: Cisbio HTRF pERK assay, H727 cells; details: for IC50: 3 hrs compound, read-out: Inhibition (HTRF IC50 nM) of KRas-mediated Phosphorylation of ERK, H727; for inhibition at 0.1 µM: Homo sapiens, NCI-H727, single point at 100 nM
[3] = system: KRas-mediated Phosphorylation of ERK in HCT116 cells; test: Cisbio HTRF pERK assay, HCT116 cells; details: for inhibition at 0.1 µM: Homo sapiens, HCT-116, HCT116 cells, single point at 100 nM
[4] = system: KRas-mediated Phosphorylation of ERK in A549 cells; test: Cisbio HTRF pERK assay, A549 cells; details: for IC50: A549 cells, 3 hrs compound, read-out: Inhibition (HTRF IC50 nM) of KRas-mediated Phosphorylation of ERK, A549; for inhibition at 0.1 µM: Homo sapiens, A549, A549 cells, single point at 100 nM
[5] = system: KRas-mediated Phosphorylation of ERK in H460 cells; test: Cisbio HTRF pERK assay, H460 cells; details: for inhibition at 0.1 µM: Homo sapiens, NCI-H460, H460 cells, single point at 100 nM
[6] = system: KRas-mediated Phosphorylation of ERK in H358 cells; test: Cisbio HTRF pERK assay, H358 cells; details: for IC50: H358 cells, 3 hrs compound, read-out: Inhibition (HTRF IC50 nM) of KRas-mediated Phosphorylation of ERK, H358; for inhibition at 0.1 µM: Homo sapiens, NCI-H358, H358 cells, single point at 100 nM

| IC50 ([1]; Homo sapiens, ASPC1, 3 h) [nM] | IC50 [2] [nM] | IC50 ([3]; HCT116 cells, 3 hrs compound, read-out: Inhibition (HTRF IC50 nM) of KRas-mediated Phosphorylation of ERK, HCT116) [nM] | IC50 [4] [nM] | IC50 ([5]; H460 cells, 3 hrs compound, read-out: Inhibition (HTRF IC50 nM) of KRas-mediated Phosphorylation of ERK, H460) [nM] | IC50 [6] [nM] | IC50 [1] [nM] | SMILES | inhibition at 0.1 µM ([1]; Homo sapiens) [%] | inhibition at 0.1 µM [2] [%] | inhibition at 0.1 µM [3] [%] | inhibition at 0.1 µM [4] [%] | inhibition at 0.1 µM [5] [%] | inhibition at 0.1 µM [6] [%] |
| --- | --- | --- | --- | --- | --- | --- | --- | --- | --- | --- | --- | --- | --- |
| 192 | 342 | 896 | 605 | 427 | 128 | – | CN(C)C(=O)c1cc2n(n1)CCCN(c1nc(OC[C@@]34CCCN3C/C(=C\F)C4)nc3c(F)c(-c4ccc(F)c5sc(N)c(C#N)c45)c(Cl)cc13)C2 (atropisomer, axis not shown) [Example 194, 5-((S)-7-(2-amino-3-cyano-7-fluorobenzo[b]thiophen-4-yl)-6-chloro-8-fluoro-2-(((S,Z)-2-(fluoromethylene)tetrahydro-1H-pyrrolizin-7a(5H)-yl)methoxy)quinazolin-4-yl)-N,N-dimethyl-5,6,7,8-tetrahydro-4H-pyrazolo[1,5-a][1,4]diazepine-2-carboxamide] | – | – | – | – | – | – |
| – | 686 | – | – | – | – | 414 | C[C@@]1(O)COCCN(c2nc(OC[C@@]34CCCN3C[C@H](F)C4)nc3c(F)c(-c4ccc(F)c5sc(N)c(C#N)c45)c(Cl)cc23)C1 (atropisomer, axis not shown; (aS)) [Example 193, 2-amino-4-((S)-6-chloro-8-fluoro-2-(((2R,7aS)-2-fluorotetrahydro-1H-pyrrolizin-7a(5H)-yl)methoxy)-4-((S)-6-hydroxy-6-methyl-1,4-oxazepan-4-yl)quinazolin-7-yl)-7-fluorobenzo[b]thiophene-3-carbonitrile] | – | – | – | – | – | – |
| – | 2820 | – | 2420 | – | 472 | 531 | N#Cc1c(N)sc2c(F)ccc(-c3c(Cl)cc4c(N5CCCn6nnc(Cl)c6C5)nc(OC[C@@]56CCCN5C[C@H](F)C6)nc4c3F)c12 (single isomer, unassigned) [Example 196] | – | – | – | – | – | – |
| – | 12 | – | 10 | – | 3 | 2 | N#Cc1c(N)sc2c(F)ccc(-c3c(Cl)cc4c(N5CCCn6nnc(Cl)c6C5)nc(OC[C@@]56CCCN5C[C@H](F)C6)nc4c3F)c12 (single isomer, unassigned) [Example 197] | – | – | – | – | – | – |
| – | – | – | – | – | – | – | CCc1c(F)ccc2cc(O)cc(-c3c(F)cc4c(N5CCC[C@@](C)(O)C5)nc(OCC5(CN(C)C)CC5)nc4c3F)c12 [Example 11, (R)-1-(2-((1-((dimethylamino)methyl)cyclopropyl)methoxy)-7-((R)-8-ethyl-7-fluoro-3-hydroxynaphthalen-1-yl)-6,8-difluoroquinazolin-4-yl)-3-methylpiperidin-3-ol] | 91 | 49 | – | – | – | – |
| – | – | – | – | – | – | – | CCc1c(F)ccc2cc(O)cc(-c3ccc4c(N5CCCC6(CCO6)C5)nc(OC[C@@]56CCCN5C[C@H](F)C6)nc4c3F)c12 (stereo partly drawn) [Example 71, 5-ethyl-6-fluoro-4-(8-fluoro-2-(((2R,7aS)-2-fluorohexahydro-1H-pyrrolizin-7a-yl)methoxy)-4-(1-oxa-6-azaspiro[3.5]nonan-6-yl)quinazolin-7-yl)naphthalen-2-ol] | 90 | 65 | 38 | 82 | 87 | 94 |
| – | – | – | – | – | – | – | CCc1c(F)ccc2cc(O)cc(-c3ccc4c(N5CCCn6nc(C(=O)N7CCOCC7)c(Cl)c6C5)nc(OC[C@@]56CCCN5C[C@H](F)C6)nc4c3F)c12 [Example 73, (3-chloro-5-(7-(8-ethyl-7-fluoro-3-hydroxynaphthalen-1-yl)-8-fluoro-2-(((2R,7aS)-2-fluorohexahydro-1H-pyrrolizin-7a-yl)methoxy)quinazolin-4-yl)-5,6,7,8-tetrahydro-4H-pyrazolo[1,5-a][1,4]diazepin-2-yl)(morpholino)methanone] | 97 | 71 | 48 | 71 | – | 97 |
| – | – | – | – | – | – | – | CCc1c(F)ccc2cc(O)cc(-c3ccc4c(N5CCCn6nc(C(=O)N(C)C)c(Cl)c6C5)nc(OC[C@@]56CCCN5C[C@H](F)C6)nc4c3F)c12 [Example 74, 3-chloro-5-(7-(8-ethyl-7-fluoro-3-hydroxynaphthalen-1-yl)-8-fluoro-2-(((2R,7aS)-2-fluorohexahydro-1H-pyrrolizin-7a-yl)methoxy)quinazolin-4-yl)-N,N-dimethyl-5,6,7,8-tetrahydro-4H-pyrazolo[1,5-a][1,4]diazepine-2-carboxamide] | 99 | 78 | 38 | 72 | – | 98 |
| – | – | – | – | – | – | – | CCc1c(F)ccc2cc(O)cc(-c3ccc4c(N5CCCn6nc(C(=O)N(C)C)c(C)c6C5)nc(OC[C@@]56CCCN5C[C@H](F)C6)nc4c3F)c12 [Example 75, 5-(7-(8-ethyl-7-fluoro-3-hydroxynaphthalen-1-yl)-8-fluoro-2-(((2R,7aS)-2-fluorohexahydro-1H-pyrrolizin-7a-yl)methoxy)quinazolin-4-yl)-N,N,3-trimethyl-5,6,7,8-tetrahydro-4H-pyrazolo[1,5-a][1,4]diazepine-2-carboxamide] | 95 | 73 | 29 | 79 | – | 98 |
| – | – | – | – | – | – | – | CCc1c(F)ccc2cc(O)cc(-c3c(F)cc4c(N5CCCn6nc(C(=O)N7CCN(C)CC7)cc6C5)nc(OC[C@@]56CCCN5C[C@H](F)C6)nc4c3F)c12 [Example 76, (5-(7-(8-ethyl-7-fluoro-3-hydroxynaphthalen-1-yl)-6,8-difluoro-2-(((2R,7aS)-2-fluorohexahydro-1H-pyrrolizin-7a-yl)methoxy)quinazolin-4-yl)-5,6,7,8-tetrahydro-4H-pyrazolo[1,5-a][1,4]diazepin-2-yl)(4-methylpiperazin-1-yl)methanone] | 90 | 43 | 16 | 42 | 31 | 90 |
| – | – | – | – | – | – | – | CCc1c(F)ccc2cc(O)cc(-c3c(F)cc4c(N5CCCC6(CCO6)C5)nc(OC[C@@]56CCCN5C[C@H](F)C6)nc4c3F)c12 (stereo partly drawn) [Example 77, 4-(6,8-difluoro-2-(((2R,7aS)-2-fluorotetrahydro-1H-pyrrolizin-7a(5H)-yl)methoxy)-4-(1-oxa-6-azaspiro[3.5]nonan-6-yl)quinazolin-7-yl)-5-ethyl-6-fluoronaphthalen-2-ol] | 87 | 66 | 45 | 82 | 86 | 96 |
| – | – | – | – | – | – | – | CCc1c(F)ccc2cc(O)cc(-c3c(F)cc4c(N5CCCn6nc(C(=O)N(C)C)c(Cl)c6C5)nc(OC[C@@]56CCCN5C[C@H](F)C6)nc4c3F)c12 [Example 78, 3-chloro-5-(7-(8-ethyl-7-fluoro-3-hydroxynaphthalen-1-yl)-6,8-difluoro-2-(((2R,7aS)-2-fluorohexahydro-1H-pyrrolizin-7a-yl)methoxy)quinazolin-4-yl)-N,N-dimethyl-5,6,7,8-tetrahydro-4H-pyrazolo[1,5-a][1,4]diazepine-2-carboxamide] | 98 | 75 | 75 | 94 | 81 | 96 |
